Assay results: patent publication US12090155B2, “Methods” (INTRA-CELLULAR THERAPIES, INC., priority 2019, dated 2024)
“Also recorded” adds a separate entry of the source.

Experiments:
[1] = system: patients with Bipolar I or Bipolar II disorder experiencing a major depressive episode; assay: Phase 3 placebo-controlled clinical trial, efficacy (MADRS, CGI-BP-S); assay type: in vivo, human
Description: (§1) A multi-center, multi-national, randomized, double-blind, fixed-dose, placebo-controlled clinical trial is conducted substantially in accordance with the following protocol.
(§2) Patients are recruited according to the following criteria: • Major Inclusion Criteria: Male or female subjects of any race, ages 18-75 inclusive, with a clinical diagnosis of Bipolar I or Bipolar II disorder, experiencing a current major depressive episode, and able to provide written informed consent. • Major Exclusion Criteria: Any female subject who is pregnant or breast-feeding, and any subject judged to be medically inappropriate for study participation.
(§3) In the placebo arm, placebo is administered once daily every evening for 6 weeks. […] The study is quadruple-masked (i.e., to participant, care provider, investigator, and outcomes assessor).
(§4) The total study duration is about 10 weeks, including up to 2 weeks screening period (washout of prohibited medications), a 6-week double-blind treatment period, and 2-week safety follow-up period.
The primary outcome measure is the Montgomery-Åsberg Depression Rating Scale (MADRS) [Time Frame: Day 43]. Secondary outcome measures are the Clinical Global Impression Scale, Bipolar version (CGI-BP) [Time Frame: Day 43] and the Quality of Life Enjoyment and Satisfaction Questionnaire-Short Form (Q-LES-Q-SF) [Time Frame: Day 43].

[2] = system: patients with Bipolar I or Bipolar II disorder experiencing a major depressive episode; assay: Phase 3 placebo-controlled clinical trial, safety and tolerability; assay type: in vivo, human
Description: as §1, §2, §3, §4
Incidence of Adverse Events (AEs) • b. Young Mania Rating Scale (YMRS) • c. Columbia Suicide Severity Rating Scale (C-SSRS) • d. Abnormal Involuntary Movement Scale (AIMS) • e. Barnes Akathisia Rating Scale (BARS) • f. Simpson Angus Scale (SAS) • g. Clinical laboratory evaluations • h. Electrocardiograms (ECGs) • i. Vital sign measurements • j. Physical examination and neurological findings

[3] = 42 mg once daily orally for 6 weeks, Day 43, ITT
[4] = 42 mg once daily orally for 6 weeks, Day 43, listed as lumateperone
[5] = 42 mg once daily orally for 6 weeks, change from baseline to Day 43, ITT
[6] = 42 mg once daily, week 6, ITT population

SMILES: CN1CCN2c3c(cccc31)[C@@H]1CN(CCCC(=O)c3ccc(F)cc3)CC[C@@H]12 [Lumateperone, 4-((6bR,10aS)-3-methyl-2,3,6b,9,10,10a-hexahydro-1H-pyrido[3′,4′: 4,5]pyrrolo[1,2,3-de]quinoxalin-8(7H)-yl)-1-(4-fluorophenyl)-1-butanone]
- MADRS total score versus placebo, subgroup of patients with Bipolar II disorder ([1]; 42 mg daily, subgroup analysis, Bipolar II disorder): statistically significant superior versus placebo; also recorded: statistically significant superior to placebo
- Responder rates and remission rates versus placebo ([1]; 42 mg once daily): statistically significant benefits
- Time of first statistically significant separation from placebo on MADRS total score ([1]; 42 mg once daily): as early as week 1
- MADRS total score, Effect Size, comparison to placebo at Day 43 ([1]; 42 mg once daily orally for 6 weeks, Day 43): −0.56
- CGI-BP-S total score, LSMD (SE), comparison to placebo at Day 43 [1, 3]: −0.9 (0.22)
- MADRS total score, LSMD (SE), comparison to placebo at Day 43 [1, 3]: -4.6
- CGI-BP-S total score, Effect Size, comparison to placebo at Day 43 [1, 4]: 0.46
- MADRS total score, Effect Size, comparison to placebo at Day 43 [1, 4]: 0.56
- CGI-BP-S total score, LS Mean (SE) Change at Day 43 [1, 5]: −3.5 (0.17)
- MADRS total score, LS Mean (SE) Change at Day 43 [1, 5]: −16.7 (0.69)
- CGI-S Depression Score, effect size versus placebo ([1]; 42 mg once daily, 6 weeks): 0.5
- MADRS total score, LS mean difference versus placebo [1, 6]: 4.6 points
- MADRS total score, least squares (LS) mean reduction from baseline [1, 6]: 16.7 points
- Emergence of mania as measured by the Young Mania Rating Scale (YMRS) and clinical global impression of severity for mania ([2]; 42 mg daily): did not exhibit emergence of mania
- Extrapyramidal symptoms, akathisia, restlessness or other motor side effects (adverse event reports) ([2]; 42 mg daily): does not increase akathisia, restlessness, or other movement disorders; also recorded: no adverse event reports of extrapyramidal symptoms
- Metabolic effects (hyperglycemia, dyslipidemia, weight gain) ([2]; 42 mg daily): does not have significant metabolic side effects; also recorded: did not appear to have any noticeable metabolic effects
- Overall safety profile / tolerability ([2]; 42 mg daily): favorable safety profile in this trial, comparable to placebo; also recorded: generally safe and well tolerated
- Rate of the most commonly reported adverse events (headache, somnolence and nausea), higher than placebo ([2]; 42 mg daily): greater than 5%
- Rates of akathisia and extrapyramidal symptoms ([2]; 42 mg daily): less than 1%
- Suicidal ideation (adverse event reports) ([2]; 42 mg daily): does not increase suicidal ideation; also recorded: no adverse event reports of suicidal ideation
- Number of patients with drug-related TEAE ([2]; 42 mg, N = 188): 78 (41.5) n (%)
- Number of patients with drug-related treatment-emergent SAE ([2]; 42 mg, N = 188): 0 n (%)
- Number of patients with treatment-emergent SAE ([2]; 42 mg, N = 188): 1 (0.5) n (%)
- Number of patients with treatment-emergent death ([2]; 42 mg, N = 188): 0 n (%)
- Subjects discontinued study due to TEAE ([2]; 42 mg, N = 188): 11 (5.9) n (%)
- Subjects discontinued study due to drug-related TEAE ([2]; 42 mg, N = 188): 9 (4.8) n (%)
- Subjects discontinued study due to drug-related treatment-emergent SAE ([2]; 42 mg, N = 188): 0 n (%)
- Subjects discontinued study due to treatment-emergent SAE ([2]; 42 mg, N = 188): 1 (0.5) n (%)
- Subjects who died ([2]; 42 mg, N = 188): 0 n (%)
- Number of patients with one or more TEAE ([2]; 42 mg, N = 188, safety population): 103 (54.8) n (%)
